From ChEMBL document CHEMBL2086334, “Fluorogenic assay of alkaline phosphatase activity based on the modulation of excited-state intramolecular proton transfer” (Bioorg Med Chem Lett, 2012)
The source made the active and inactive calls. The calls are words filed in the database; no cut-off is given here.

Key:
[1] = Inhibition of alkaline phosphatase
[2] = Activity of alkaline phosphatase assessed as compound hydrolysis assessed as increase in fluorescence intensity measured every 30 secs for 10 mins by Lineweaver-Burk plot analysis
[3] = Activity of alkaline phosphatase assessed as compound hydrolysis at 20 uM assessed as increase in fluorescence intensity every 1 min for 10 mins by fluorescence spectrophotometry relative to control
[4] = Activity of alkaline phosphatase assessed as compound hydrolysis at 20 uM at 0.1 to 50 nM enzyme concentration measured every 1 min for 10 mins by fluorescence spectrophotometry
[5] = Activity of levamisole-pretreated alkaline phosphatase assessed as compound hydrolysis at 20 uM measured every 0.5 mins for 10 mins by fluorescence spectrophotometry

Row | Compound | IC50 [1] [µM] | Km [2] [µM] | kcat [2] [s⁻¹] | fold change (FC) [3] | Activity [4] | Activity [5]
1 | c1ccc([C@H]2CN3CCSC3=N2)cc1 [LEVAMISOLE] | 13.3 | – | – | – | – | –
2 | O=P(O)(O)Oc1ccccc1-c1nc(-c2ccccc2)cs1 | – | 1.9 | 0.09 | 455 | Active | inactive
